Laboratory results as given in PubChem BioAssay (NCI).
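96-well plates; 48 h exposure; 5 concentrations. Endpoints by linear interpolation between flanking doses. Not reached: highest tested concentration assigned. At the GI50, growth is halved. At the TGI there is no net growth.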

Key:
Assay in all cases: NCI-60 cell line screen, 48 h
ACHN renal = test system: ACHN renal
OVCAR-4 ovarian = test system: OVCAR-4 ovarian
SN12C renal = test system: SN12C renal
NCI-H226 lung = test system: NCI-H226 lung
TK-10 renal = test system: TK-10 renal
SNB-19 CNS = test system: SNB-19 CNS
SR leukemia = test system: SR leukemia
RPMI-8226 leukemia = test system: RPMI-8226 leukemia
SK-MEL-5 melanoma = test system: SK-MEL-5 melanoma
SW-620 colon = test system: SW-620 colon

| Structure (SMILES) | GI50 (ACHN renal) [µM] | TGI (ACHN renal) [µM] | GI50 (OVCAR-4 ovarian) [µM] | TGI (OVCAR-4 ovarian) [µM] | GI50 (SN12C renal) [µM] | TGI (SN12C renal) [µM] | GI50 (NCI-H226 lung) [µM] | TGI (NCI-H226 lung) [µM] | GI50 (TK-10 renal) [µM] | TGI (TK-10 renal) [µM] | GI50 (SNB-19 CNS) [µM] | TGI (SNB-19 CNS) [µM] | GI50 (SR leukemia) [µM] | TGI (SR leukemia) [µM] | GI50 (RPMI-8226 leukemia) [µM] | TGI (RPMI-8226 leukemia) [µM] | GI50 (SK-MEL-5 melanoma) [µM] | TGI (SK-MEL-5 melanoma) [µM] | GI50 (SW-620 colon) [µM] | TGI (SW-620 colon) [µM] |
| --- | --- | --- | --- | --- | --- | --- | --- | --- | --- | --- | --- | --- | --- | --- | --- | --- | --- | --- | --- | --- |
| CC1(C)N=C(N)N=C(N)N1c1ccc(F)c(C(F)(F)F)c1 | 2.28 | > 100 | 22.6 | > 100 | 5.13 | > 100 | > 27.6 | > 100 | 3.4 | > 100 | 4.47 | > 100 | 0.444 | > 100 | 3.42 | > 100 | 3.04 | > 100 | 0.233 | > 100 |
| O=C1C=C(Nc2ccccc2C(=O)CC(=O)C(=O)Nc2cccc(C(F)(F)F)c2)c2ccccc2C1=O |  | > 100 |  | > 87.4 |  | 36.3 |  | > 100 |  | > 100 |  | > 100 |  | > 94.7 |  | > 100 |  | 30.8 |  | 48.6 |
| CCc1c2c(nc3cc4c(cc13)OCO4)-c1cc3c(c(=O)n1C2)COC(=O)[C@@]3(CC)OC(=O)CN | < 0.01 | < 0.01 | 0.0244 | 0.711 | < 0.01 | 0.034 | < 0.01 | < 0.01 | 0.178 | 20 | < 0.01 |  | < 0.01 | < 0.0389 | < 0.01 | 0.154 | < 0.01 | 0.037 | < 0.013 |  |
| [Cu+2].[O-]c1ccc2ccccc2c1N=Nc1ccccc1.[O-]c1ccc2ccccc2c1N=Nc1ccccc1 |  | > 100 |  | > 100 |  | > 100 |  | > 100 |  | > 100 |  | > 100 |  | > 100 |  | > 100 |  | > 100 |  | > 100 |
| Cn1c(COC(=O)N2CCCCC2)nc2c(N3CCOCC3)nc(-c3ccccc3)nc21 | 0.352 | 1.29 | 0.638 | 1.85 | 0.868 | 2.17 | 1.59 | 3.62 | 1.35 | 2.66 | 1.51 | 2.86 | 0.287 | 2.34 | 0.257 | 0.814 | 1.47 | 2.79 | 0.235 | 0.539 |
| C=C1CC(CCCl)(c2ccccc2)OC1=O (stereo unspecified) |  | > 56.3 |  | > 100 |  | > 62.7 |  | > 100 |  | > 77.7 |  | > 100 |  | 52.6 |  | 71.5 |  | > 100 |  | 39.5 |
| O=C(O)/C(=C/c1ccccc1[N+](=O)[O-])c1ccccc1 |  | > 100 |  | > 100 |  | > 100 |  | > 100 |  | > 100 |  | > 100 |  | > 100 |  | > 100 |  | > 100 |  | > 100 |
| CC(C)=CCc1c(O)cc(/C=C/c2cc(O)c3c(c2)C[C@@H]2C(C)(C)[C@H](O)[C@H](O)C[C@@]2(C)O3)cc1O | 0.526 | > 8.74 | 0.831 | 4.08 | 2.81 | > 10 | 1.99 | > 10 | 0.479 | > 3.1 | 1.46 | > 10 | < 0.001 | > 10 | < 0.001 |  | 1.03 | 2.32 | 0.11 | 1.88 |
| CC(ONC(=O)c1cc(C(F)(F)F)cc(C(F)(F)F)c1)C(=O)Nc1ccc(Cl)cc1 (stereo unspecified) | 4.55 | 50.6 | 4.64 | > 100 | 5.44 | > 100 | 7.31 | > 64.4 | 5.42 | > 75.1 | 5.64 | > 100 |  | 1.16 | 2.27 | 6.98 | 2.79 | 7.86 | 5.64 | 23.7 |
| COC(CCP(=O)(c1ccccc1)c1ccccc1)(C(=O)c1ccccc1)c1ccccc1 (stereo unspecified) | 4.98 | 17 | 5.57 | 21.4 | 5.23 | 20 | 2.19 | 15.7 | 2.94 | 14.1 | 5.75 | 19.1 | 0.967 | > 100 | 0.433 | 2.6 | 2.39 | 10.9 | 3.86 | 15.7 |
